In US8658646B2, “Pyrrolopyrazine kinase inhibitors” (Hoffmann-LaRoche Inc., priority 2011, dated 2014):
Values joined by “and” are separate entries in the source; they are usually repeats but may differ in a detail not shown here. Equal values may be shown once.

Assays:
[1] = target: T1, recombinant human SYK360-635 (Homo sapiens, UniProt P43405); assay: Determination of IC50 of Spleen Tyrosine Kinase (SYK) inhibition, 33P ATP filtration assay; assay type: biochemical; conditions: SYK aa 360-635 0.5 nM; ATP 20 μM, peptide 5 μM, 0.1% BSA; read-out: SYK_ENZYME_FILTRATION/v1, BSA
T1 construct: made in house

[2] = target: T2, JAK3: Recombinant human kinase domain (Homo sapiens, UniProt P52333); assay: Determination of IC50 of Janus Kinase (JAK) inhibition, radioactive end-point 33P-ATP assay, JAK3; assay type: biochemical; conditions: ATP 1.5 uM, peptide 50 uM, 20 minutes, read-out: JAK3-INHIB-DR/v1~NO ADDITIVE~Enzyme_Conc = 100
T2 construct: JAK3: Recombinant human kinase domain from Millipore (Cat #14-629) or prepared; purchased Millipore 14-629
T2 sequence (P52333 822-1111 limits assumed): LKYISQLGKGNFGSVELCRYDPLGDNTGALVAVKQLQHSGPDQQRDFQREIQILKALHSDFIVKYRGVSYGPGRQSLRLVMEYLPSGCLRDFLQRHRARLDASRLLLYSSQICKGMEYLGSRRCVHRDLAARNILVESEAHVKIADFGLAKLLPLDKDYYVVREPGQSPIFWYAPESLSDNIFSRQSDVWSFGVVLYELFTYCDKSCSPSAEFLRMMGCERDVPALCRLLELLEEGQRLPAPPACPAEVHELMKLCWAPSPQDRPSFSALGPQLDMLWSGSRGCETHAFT
Experimental: Determination of IC50 of Janus Kinase (JAK) Inhibition:
Assay conditions used are described below: • Assay Buffer: JAK Kinase Buffer: 50 mM Hepes [pH 7.2], 10 mM MgCl2, 1 mM DTT, 1 mg/ml BSA. The assay was carried out in this buffer. • Assay Format The kinase activity of all three JAK kinases was measured using a radioactive, end-point assay and with trace amounts of ^33P-ATP. The assays were carried out in 96-well polypropylene plates. Experimental Method:
All concentrations were final in the reaction mixture and all incubations were carried at room temperature. […] Final concentration of DMSO in the reaction was 10%. • 2) Compounds were preincubated with enzyme (0.5 nM JAK3 (commercially available), 0.2 nM JAK3 (prepared), 1 nM JAK2, 5 nM JAK1) for 10 minutes. • 3) Reactions were initiated by the addition of a cocktail of the two substrates (ATP and peptide premixed in the JAK Kinase Buffer). […] JAK1 assay was carried out at an ATP concentration of 10 uM and a peptide concentration of 50 uM. • 4) The duration of the assay for JAK2 and JAK3 is 20 minutes. JAK1 assay was carried out for 40 minutes. With all three enzymes, reactions were terminated by the addition of 0.5M EDTA to a final concentration of 100 mM. • 5) 25 ul of terminated reactions were transferred to 150 ul of a 7.5% (v/v) slurry of streptavidin-coated sepharose beads in MgCl2- and CaCl2-free 1× Phosphate Buffered Saline containing 50 mM of EDTA in 96-well, 1.2 um MultiScreen-BV filter plates. • 6) After a 30-minute incubation, the beads were washed under vacuum with the following buffers: • a. 3 to 4 washes with 200 ul of 2M NaCl. • b. 3 to 4 washes with 200 ul of 2M NaCl plus 1% (v/v) phosphoric acid. • c. 1 wash with water. • 7) Washed plates were dried in a 60° C. oven for between 1 to 2 hours. • 8) 70 ul of Microscint 20 scintillation fluid was added to each well of filter plates and after at least 30 minutes of incubation, radioactive counts were measured in a Perkinelmer microplate scintillation counter.

Structure (SMILES)	IC50 [1]	IC50 [2]
C[C@@H](O)[C@@H](NC(=O)c1c[nH]c2ncc(-c3nn(C)c4cc(F)ccc34)nc12)C(=O)N1CC(F)C1 [Example I-198, 2-(6-Fluoro-1-methyl-1H-indazol-3-yl)-5H-pyrrolo[2,3-b]pyrazine-7-carboxylic acid [(1R,2R)-1-(3-fluoro-azetidine-1-carbonyl)-2-hydroxy-propyl]-amide]	120 nM	1.61 nM
CC(NC(=O)c1c[nH]c2ncc(-c3nn(C)c4cc(Cl)ccc34)nc12)c1nccn1C (stereo not shown) [Example I-199, 2-(6-Chloro-1-methyl-1H-indazol-3-yl)-5H-pyrrolo[2,3-b]pyrazine-7-carboxylic acid [1-(1-methyl-1H-imidazol-2-yl)-ethyl]-amide]	64.4 nM	178 nM
Cn1nc(-c2cnc3[nH]cc(C(=O)NC4(c5ccc(Br)cc5)CC4)c3n2)c2ccc(F)cc21 [Example I-208, 2-(6-Fluoro-1-methyl-1H-indazol-3-yl)-5H-pyrrolo[2,3-b]pyrazine-7-carboxylic acid [1-(4-bromo-phenyl)-cyclopropyl]-amide]	4020 nM and > 10000 nM	77.7 nM
COC[C@H](C)NC(=O)c1c[nH]c2ncc(-n3cnc4cc(Cl)ccc43)nc12 [Example I-223, 2-(5-Chloro-benzoimidazol-1-yl)-5H-pyrrolo[2,3-b]pyrazine-7-carboxylic acid ((S)-2-methoxy-1-methyl-ethyl)-amide]	416 nM	189 nM
COC[C@H](C)NC(=O)c1c[nH]c2ncc(-n3cnc4ccc(Cl)cc43)nc12 [Example I-224, 2-(6-Chloro-bcnzoimidazol-1-yl)-5H-pyrrolo[2,3-b]pyrazine-7-carboxylic acid ((S)-2-methoxy-1-methyl-ethyl)-amide]	357 nM	346 nM
COC[C@H](C)NC(=O)c1c[nH]c2ncc(-c3nn(CCN(C)C)c4cc(Cl)ccc34)nc12 [Example I-234, 2-[6-Chloro-1-(2-dimethylamino-ethyl)-1H-indazol-3-yl]-5H-pyrrolo[2,3-b]pyrazine-7-carboxylic acid ((S)-2-methoxy-1-methyl-ethyl)-amide]	95.1 nM	2.88 nM
COC[C@H](C)NC(=O)c1c[nH]c2ncc(-c3nn(Cc4ccc(N5CCOCC5)nc4)c4cc(F)ccc34)nc12 [Example I-237, 2-[6-Fluoro-1-(6-morpholin-4-yl-pyridin-3-ylmethyl)-1H-indazol-3-yl]-5H-pyrrolo[2,3-b]pyrazine-7-carboxylic acid ((S)-2-methoxy-1-methyl-ethyl)-amide]	22.7 nM	0.725 nM
COC[C@H](C)NC(=O)c1c[nH]c2ncc(-c3nn(Cc4cccnc4)c4cc(F)ccc34)nc12 [Example I-241, 2-(6-Fluoro-1-pyridin-3-ylmethyl-1H-indazol-3-yl)-5H-pyrrolo[2,3-b]pyrazine-7-carboxylic acid ((S)-2-methoxy-1-methyl-ethyl)-amide]	20.3 nM	0.41 nM
COC[C@H](C)NC(=O)c1c[nH]c2ncc(-c3nn(CCN4CCCC4)c4cc(F)ccc34)nc12 [Example I-242, 2-[6-Fluoro-1-(2-pyrrolidin-1-yl-ethyl)-1H-indazol-3-yl]-5H-pyrrolo[2,3-b]pyrazine-7-carboxylic acid ((S)-2-methoxy-1-methyl-ethyl)-amide]	209 nM	2.1 nM
COC[C@H](C)NC(=O)c1c[nH]c2ncc(-c3nn(CCN4CC[C@H](F)C4)c4cc(F)ccc34)nc12 [Example I-243, 2-{6-Fluoro-1-[2-((S)-3-fluoro-pyrrolidin-1-yl)-ethyl]-1H-indazol-3-yl}-5H-pyrrolo[2,3-b]pyrazine-7-carboxylic acid ((S)-2-methoxy-1-methyl-ethyl)-amide]	70.5 nM	1.47 nM
COC[C@H](C)NC(=O)c1c[nH]c2ncc(-c3nn(CCn4cccn4)c4cc(F)ccc34)nc12 [Example I-244, 2-[6-Fluoro-1-(2-pyrazol-1-yl-ethyl)-1H-indazol-3-yl]-5H-pyrrolo[2,3-b]pyrazine-7-carboxylic acid ((S)-2-methoxy-1-methyl-ethyl)-amide]	324 nM	5.46 nM
CC(NC(=O)c1c[nH]c2ncc(-c3nn(CCN4CCOCC4)c4cc(Cl)ccc34)nc12)c1cccnc1 (stereo not shown) [Example I-245, 2-[6-Chloro-1-(2-morpholin-4-yl-ethyl)-1H-indazol-3-yl]-5H-pyrrolo[2,3-b]pyrazine-7-carboxylic acid (1-pyridin-3-yl-ethyl)-amide]	131 nM	47.2 nM
CC(NC(=O)c1c[nH]c2ncc(-c3nn(CCN(C)C)c4cc(Cl)ccc34)nc12)c1cccnc1 (stereo not shown) [Example I-246, 2-[6-Chloro-1-(2-dimethylamino-ethyl)-1H-indazol-3-yl]-5H-pyrrolo[2,3-b]pyrazine-7-carboxylic acid (1-pyridin-3-yl-ethyl)-amide]	354 nM	41.5 nM
CC(NC(=O)c1c[nH]c2ncc(-c3nn(C)c4cc(Cl)ccc34)nc12)c1cccnc1 (stereo not shown) [Example I-247, 2-(6-Chloro-1-methyl-1H-indazol-3-yl)-5H-pyrrolo[2,3-b]pyrazine-7-carboxylic acid (1-pyridin-3-yl-ethyl)-amide]	69.2 nM	66.7 nM
CC(NC(=O)c1c[nH]c2ncc(-c3nn(CCN4CCOCC4)c4cc(F)ccc34)nc12)c1ccncc1 (stereo not shown) [Example I-248, 2-[6-Fluoro-1-(2-morpholin-4-yl-ethyl)-1H-indazol-3-yl]-5H-pyrrolo[2,3-b]pyrazine-7-carboxylic acid (1-pyridin-4-yl-ethyl)-amide]	514 nM	53.5 nM
CC(NC(=O)c1c[nH]c2ncc(-c3nn(CCN(C)C)c4cc(F)ccc34)nc12)c1ccncc1 (stereo not shown) [Example I-249, 2-[1-(2-Dimethylamino-ethyl)-6-fluoro-1H-indazol-3-yl]-5H-pyrrolo[2,3-b]pyrazine-7-carboxylic acid (1-pyridin-4-yl-ethyl)-amide]	1990 nM	170 nM
CC(Cc1ccccn1)NC(=O)c1c[nH]c2ncc(-c3nn(CCN4CCCC4)c4cc(F)ccc34)nc12 (stereo not shown) [Example I-250, 2-[6-Fluoro-1-(2-pyrrolidin-1-yl-ethyl)-1H-indazol-3-yl]-5H-pyrrolo[2,3-b]pyrazine-7-carboxylic acid (1-methyl-2-pyridin-2-yl-ethyl)-amide]	8930 nM	> 1000 nM
C[C@@H](NC(=O)c1c[nH]c2ncc(-c3nn(C)c4cc(F)ccc34)nc12)C1COC1 [Example I-252, 2-(6-Fluoro-1-methyl-1H-indazol-3-yl)-5H-pyrrolo[2,3-b]pyrazine-7-carboxylic acid ((R)-1-oxetan-3-yl-ethyl)-amide]	67.2 nM	19.4 nM
C[C@H](NC(=O)c1c[nH]c2ncc(-c3nn(C)c4cc(F)ccc34)nc12)c1cccc(OC(F)(F)F)c1 [Example I-253, 2-(6-Fluoro-1-methyl-1H-indazol-3-yl)-5H-pyrrolo[2,3-b]pyrazine-7-carboxylic acid [(S)-1-(3-trifluoromethoxy-phenyl)-ethyl]-amide]	6370 nM	> 1000 nM
C[C@@H](NC(=O)c1c[nH]c2ncc(-c3nn(C)c4cc(F)ccc34)nc12)c1cccc(OC(F)(F)F)c1 [Example I-254, 2-(6-Fluoro-1-methyl-1H-indazol-3-yl)-5H-pyrrolo[2,3-b]pyrazine-7-carboxylic acid [(R)-1-(3-trifluoromethoxy-phenyl)-ethyl]-amide]	3230 nM	18.6 nM
